In ChEMBL document CHEMBL3817829, “Spirooxindoles as novel 3D-fragment scaffolds: Synthesis and screening against CYP121 from M. tuberculosis” (Bioorg Med Chem Lett, 2016):
pKd: −log10 of the molar value.

Legend:
[1] = Solubility of compound in 50 mM Tris-Hcl/1mM EDTA at 1 mM at pH 7.5; format: physicochemical; conditions: buffer, pH 7.5, 1000 µM
Mycocyclosin synthase [2] = molecular target: T1, Mycocyclosin synthase (Mycobacterium tuberculosis, UniProt P9WPP7); assay: Binding affinity to Mycobacterium tuberculosis recombinant His6-tagged CYP121 expressed in Escherichia coli C41(DE3) cells assessed as change in wavelength of heme soret band at 1 mM by UV-visible spectrophotometric method; conditions: 1000 µM
T1 sequence (P9WPP7 whole entry): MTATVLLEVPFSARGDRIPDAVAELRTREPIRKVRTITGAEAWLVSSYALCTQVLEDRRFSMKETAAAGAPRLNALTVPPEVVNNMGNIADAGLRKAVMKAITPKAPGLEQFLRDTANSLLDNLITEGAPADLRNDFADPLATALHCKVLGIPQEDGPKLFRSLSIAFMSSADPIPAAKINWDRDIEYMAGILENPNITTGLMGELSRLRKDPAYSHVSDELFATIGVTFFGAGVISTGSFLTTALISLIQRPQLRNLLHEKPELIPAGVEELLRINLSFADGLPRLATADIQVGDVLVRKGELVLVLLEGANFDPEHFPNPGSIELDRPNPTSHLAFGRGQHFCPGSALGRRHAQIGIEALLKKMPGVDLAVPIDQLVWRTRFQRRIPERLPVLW

Mycocyclosin synthase [3] = molecular target: T1, Mycocyclosin synthase; assay: Binding affinity to Mycobacterium tuberculosis recombinant His6-tagged CYP121 expressed in Escherichia coli C41(DE3) cells by isothermal titration calorimetry

Compound: CCOC(=O)/C=C1/C(=O)Nc2ccccc21
- solubility [1]: soluble
- Activity (Mycocyclosin synthase [2]): 0 nm

Compound: CCOC(=O)/C=C1/C(=O)Nc2ccc(F)cc21
- solubility [1]: soluble
- Activity (Mycocyclosin synthase [2]): 0 nm

Compound: CCOC(=O)/C=C1/C(=O)Nc2ccc(Cl)cc21
- solubility [1]: Insoluble
- Activity (Mycocyclosin synthase [2]): ND(Insoluble)

Compound: CCOC(=O)[C@@H]1[C@@H]2C=C[C@@H](C2)[C@@]12C(=O)Sc1ccccc12
- solubility [1]: soluble
- Activity (Mycocyclosin synthase [2]): 0 nm

Compound: N#CCC1C(=O)Nc2ccccc21 (configuration not stated)
- solubility [1]: soluble
- Activity (Mycocyclosin synthase [2]): 0 nm

Compound: CN1C(=O)C(CC#N)c2ccccc21 (configuration not stated)
- solubility [1]: soluble
- Activity (Mycocyclosin synthase [2]): 0 nm

Compound: CCOC(=O)[C@H]1[C@@H]2C=C[C@@H](C2)[C@]12C(=O)N(C(C)=O)c1ccccc12
- solubility [1]: soluble
- Activity (Mycocyclosin synthase [2]): 0 nm

Compound: N#C/C=C1/C(=O)Nc2ccc(OC(F)(F)F)cc21
- solubility [1]: soluble
- Activity (Mycocyclosin synthase [2]): 0 nm

Compound: CCOC(=O)CC1C(=O)Nc2ccc(OC(F)(F)F)cc21 (configuration not stated)
- solubility [1]: soluble
- Activity (Mycocyclosin synthase [2]): 0 nm

Compound: CCOC(=O)[C@H]1[C@@H]2C=C[C@@H](C2)[C@]12C(=O)Sc1ccccc12
- solubility [1]: soluble
- Activity (Mycocyclosin synthase [2]): -1 nm

Compound: CCOC(=O)[C@H]1[C@@H]2C=C[C@@H](C2)[C@]12C(=O)Nc1ccc(OC(F)(F)F)cc12
- solubility [1]: soluble
- Activity (Mycocyclosin synthase [2]): 0 nm

Compound: N#C/C=C1/C(=O)Nc2ccccc21
- solubility [1]: soluble
- Activity (Mycocyclosin synthase [2]): 0 nm

Compound: CCOC(=O)[C@@H]1[C@@H]2C=C[C@@H](C2)[C@@]12C(=O)Oc1ccccc12
- solubility [1]: soluble
- Activity (Mycocyclosin synthase [2]): 0 nm

Compound: CCOC(=O)[C@@H]1[C@@H]2C=C[C@@H](C2)[C@@]12C(=O)Nc1ccc(OC(F)(F)F)cc12
- solubility [1]: soluble
- Activity (Mycocyclosin synthase [2]): 0 nm

Compound: Nc1ccc2nccc(-n3cncn3)c2c1
- Activity (Mycocyclosin synthase [2]): 3 nm
- pKd (Mycocyclosin synthase [3]): 4.55

Compound: N#CCC1C(=O)Nc2ccc(OC(F)(F)F)cc21 (configuration not stated)
- solubility [1]: soluble
- Activity (Mycocyclosin synthase [2]): -2 nm

Compound: CCOC(=O)[C@@H]1[C@@H]2C=C[C@@H](C2)[C@@]12C(=O)N(C)c1ccccc12
- solubility [1]: soluble
- Activity (Mycocyclosin synthase [2]): 0 nm

Compound: CCOC(=O)/C=C1/C(=O)Sc2ccccc21
- solubility [1]: soluble
- Activity (Mycocyclosin synthase [2]): 0 nm

Compound: CCOC(=O)CC1C(=O)Oc2ccccc21 (configuration not stated)
- solubility [1]: soluble
- Activity (Mycocyclosin synthase [2]): 0 nm

Compound: CCOC(=O)[C@@H]1[C@@H]2C=C[C@@H](C2)[C@@]12C(=O)Nc1ccc(F)cc12
- solubility [1]: soluble
- Activity (Mycocyclosin synthase [2]): 0 nm

Compound: CCOC(=O)/C=C1/C(=O)N(C)c2ccccc21
- solubility [1]: soluble
- Activity (Mycocyclosin synthase [2]): 0 nm

Compound: N#C[C@@H]1[C@@H]2C=C[C@@H](C2)[C@@]12C(=O)Nc1ccccc12
- solubility [1]: soluble
- Activity (Mycocyclosin synthase [2]): 0 nm

Compound: CCOC(=O)[C@H]1[C@@H]2C=C[C@@H](C2)[C@]12C(=O)Nc1ccc(Cl)cc12
- solubility [1]: soluble
- Activity (Mycocyclosin synthase [2]): -1 nm

Compound: CCOC(=O)/C=C1/C(=O)Nc2ccc([N+](=O)[O-])cc21
- solubility [1]: Insoluble
- Activity (Mycocyclosin synthase [2]): ND(Insoluble)

Compound: CCOC(=O)[C@H]1[C@@H]2C=C[C@@H](C2)[C@]12C(=O)Nc1ccccc12
- solubility [1]: soluble
- Activity (Mycocyclosin synthase [2]): 0 nm

Compound: CCOC(=O)[C@H]1[C@@H]2C=C[C@@H](C2)[C@]12C(=O)N(C)c1ccccc12
- solubility [1]: soluble
- Activity (Mycocyclosin synthase [2]): -2 nm

Compound: CCOC(=O)/C=C1/C(=O)Oc2ccccc21
- solubility [1]: soluble
- Activity (Mycocyclosin synthase [2]): -1 nm

Compound: CCOC(=O)[C@@H]1[C@@H]2C=C[C@@H](C2)[C@@]12C(=O)N(C(C)=O)c1ccccc12
- solubility [1]: soluble
- Activity (Mycocyclosin synthase [2]): 0 nm

Compound: CCOC(=O)[C@@H]1[C@@H]2C=C[C@@H](C2)[C@@]12C(=O)Nc1ccc(Cl)cc12
- solubility [1]: soluble
- Activity (Mycocyclosin synthase [2]): 0 nm

Compound: CCOC(=O)/C=C1/C(=O)Nc2ccc(OC(F)(F)F)cc21
- solubility [1]: soluble
- Activity (Mycocyclosin synthase [2]): 0 nm

Compound: CCOC(=O)[C@H]1[C@@H]2C=C[C@@H](C2)[C@]12C(=O)Nc1ccc(F)cc12
- solubility [1]: soluble
- Activity (Mycocyclosin synthase [2]): 0 nm

Compound: CN1C(=O)/C(=C/C#N)c2ccccc21
- solubility [1]: soluble
- Activity (Mycocyclosin synthase [2]): 0 nm

Compound: N#C[C@H]1[C@@H]2C=C[C@@H](C2)[C@]12C(=O)Nc1ccccc12
- solubility [1]: soluble
- Activity (Mycocyclosin synthase [2]): 0 nm

Compound: CCOC(=O)CC1C(=O)Nc2ccc(F)cc21 (configuration not stated)
- solubility [1]: soluble
- Activity (Mycocyclosin synthase [2]): 0 nm

Compound: CCOC(=O)[C@H]1[C@@H]2C=C[C@@H](C2)[C@]12C(=O)Oc1ccccc12
- solubility [1]: soluble
- Activity (Mycocyclosin synthase [2]): -1 nm

Compound: CCOC(=O)CC1C(=O)Nc2ccc(Cl)cc21 (configuration not stated)
- solubility [1]: soluble
- Activity (Mycocyclosin synthase [2]): 0 nm

Compound: CCOC(=O)/C=C1/C(=O)N(C(C)=O)c2ccccc21
- solubility [1]: soluble
- Activity (Mycocyclosin synthase [2]): 0 nm

Compound: CCOC(=O)[C@@H]1[C@@H]2C=C[C@@H](C2)[C@@]12C(=O)Nc1ccccc12
- solubility [1]: soluble
- Activity (Mycocyclosin synthase [2]): -1 nm

Compound: N#CC1[C@@H]2C=C[C@@H](C2)C12C(=O)Nc1ccccc12 (mixture of isomers)
- solubility [1]: soluble
- Activity (Mycocyclosin synthase [2]): 0 nm

Compound: N#CC1[C@@H]2C=C[C@@H](C2)C12C(=O)Nc1ccc(OC(F)(F)F)cc12 (mixture of isomers)
- solubility [1]: soluble
- Activity (Mycocyclosin synthase [2]): 0 nm

Compound: CCOC(=O)C1[C@@H]2C=C[C@@H](C2)C12C(=O)Nc1ccc([N+](=O)[O-])cc12 (mixture of isomers)
- solubility [1]: Insoluble
- Activity (Mycocyclosin synthase [2]): ND(Insoluble)
